Several values for one entry are separate records, joined by “and”; a condition that tells them apart may be missing. Identical values can stand only once. Like-named read-outs stand apart in the source and are kept apart here.

Type in all cases: in vivo
The subject of one experiment is Panicum maximum. Description: Post-emergence herbicidal action against Panicum maximum. To be noted: 75 g of a.i./ha. Here is the method:
(§1) When the observed efficacies exceed the formal sum total of the values of the tests with individual applications, they also exceed the expected value according to Colby, which is calculated using the formula below and is likewise regarded as an indication of synergism (cf. S. R. Colby; in Weeds 15 (1967) p. 20 to 22): E^C=A+B−([…])
(§2) Here: • A=efficacy of the active compound (A) in % at an application rate of a g a.i./ha; • B=efficacy of the active compound (B) in % at an application rate of b g a.i./ha; • E^C=expected value of the effect of the combination (A)+(B) in % at the combined application rate a+b g a.i./ha.
(§3) Seeds or rhizome pieces of mono- and dicotyledonous weeds are placed in sandy loam in pots, covered with soil and grown in a greenhouse under good growth conditions (temperature, air humidity, water supply). Three weeks after sowing, the test plants were treated at the three-leaf stage with the compositions according to the invention. The compositions according to the invention formulated as spray powders or as emulsion concentrates were sprayed onto the green plant parts in various dosages with an application rate of 300 to 800 l/ha of water (equivalent). After the test plants have been left to stand in the greenhouse under optimal growth conditions for about 3 to 4 weeks, the action of the preparations is scored visually in comparison to untreated controls. The compositions according to the invention also have good post-emergence herbicidal activity against a broad spectrum of economically important gramineous and broadleaf weeds.

A further experiment relates to Bellis perenne. The experiment in a line: Post-emergence herbicidal action against Bellis perenne. To be noted: 105 g of a.i./ha. The method, then:
as §1, §2
as §3, with “The compositions according to the invention also have good post-emergence herbicidal activity against a broad spectrum of economically important gramineous and broadleaf weeds.” left out

A further experiment has as its system Ephilobium hirsutum. The experiment in a line: Post-emergence herbicidal action against Ephilobium hirsutum. To be noted: 105 g of a.i./ha. The method, then:
as §1, §2
as §3, with “The compositions according to the invention also have good post-emergence herbicidal activity against a broad spectrum of economically important gramineous and broadleaf weeds.” left out

For the next experiment, the system named is Lamium purpureum. The experiment in a line: Post-emergence herbicidal action against Lamium purpureum. An outline of the steps:
(§4)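 Greenhouse pot test: three-leaf-stage plants, three weeks from sowing, sprayed with spray-powder or emulsion-concentrate formulations at several dosages (300 to 800 l/ha water). Efficacy rated visually against untreated plants some 3 to 4 weeks later, with Colby formula giving expected combination effect.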

The test system of the next experiment is Ranunculus repens. Description: Post-emergence herbicidal action against Ranunculus repens. To be noted: 105 g of a.i./ha. Here is the method:
as §1, §2
as §3, with “After the test plants have been left to stand in the greenhouse under optimal growth conditions for about 3 to 4 weeks, the action of the preparations is scored visually in comparison to untreated controls.” left out

Another experiment deals with Viola arvensis. Description: Post-emergence herbicidal action against Viola arvensis. To be noted: 105 g of a.i./ha. The method, then:
as §1, §2
as §3, with “After the test plants have been left to stand in the greenhouse under optimal growth conditions for about 3 to 4 weeks, the action of the preparations is scored visually in comparison to untreated controls.” left out

For another experiment, the system named is Amaranthus palmeri. The experiment in a line: Post-emergence herbicidal action against Amaranthus palmeri. To be noted: for pest or weed control at 5 g/ha: 5 g of a.i./ha. An outline of the steps: as §4
The next experiment relates to Bidens pilosa. Description: Post-emergence herbicidal action against Bidens pilosa. To be noted: for Herbicidal action: 21 DAT. An outline of the steps: as §4
The next experiment concerns Brachiaria platyphylla. Description: Post-emergence herbicidal action against Brachiaria platyphylla. An outline of the steps: as §4
The subject of the next experiment is Sorghum halepense. The experiment in a line: Post-emergence herbicidal action against Sorghum halepense. To be noted: for Herbicidal action: 21 DAT. Here is the method: as §1, §2, §3
The test system of a further experiment is Digitaria sanguinalis. Description: Post-emergence herbicidal action against Digitaria sanguinalis. A digest of the protocol: as §4
A further experiment relates to Abutilon theophrasti. Description: Post-emergence herbicidal action against Abutilon theophrasti. To be noted: 75 g of a.i./ha.
The test system of another experiment is Ipomoea ssp. Description: Post-emergence herbicidal action against Ipomoea ssp. To be noted: 45 DAT.
A further experiment concerns Lysimachia nummularia. The experiment in a line: Post-emergence herbicidal action against Lysimachia nummularia. To be noted: 45 DAT; 720 g a.i./ha.
The next experiment deals with Malva pusilia. The experiment in a line: Post-emergence herbicidal action against Malva pusilia. To be noted: 42 DAT; 720 g a.i./ha.
For another experiment, the system named is Poa annua. Description: Post-emergence herbicidal action against Poa annua. An outline of the steps: as §4
In another experiment the test system is Centaurea cyano. Description: Post-emergence herbicidal action against Centaurea cyano. A digest of the protocol:
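Greenhouse pot-grown plants sprayed post-emergence at the three-leaf stage, three weeks after sowing, with spray-powder or emulsion-concentrate formulations at various dosages in 300 to 800 l/ha water on green parts.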

In the next experiment the test system is Matricaria inodora. The experiment in a line: Post-emergence herbicidal action against Matricaria inodora.
In another experiment the test system is Echinochloa crus-galli. Description: Post-emergence herbicidal action against Echinochloa crus-galli. To be noted: 21 DAT; 50 g a.i./ha. The method, then:
as §1, §2, §3

For the next experiment, the system named is Kochia scoparia. The experiment in a line: Post-emergence herbicidal action against Kochia scoparia. To be noted: 21 DAT.
The next experiment concerns Polygonum convolvulus. Description: Post-emergence herbicidal action against Polygonum convolvulus. To be noted: 21 DAT; 50 g a.i./ha.
The next experiment relates to Bromus sterilis. The experiment in a line: Post-emergence herbicidal action against Bromus sterilis.
For another experiment, the system named is Lolium rigidum. Description: Post-emergence herbicidal action against Lolium rigidum.
Another experiment deals with Phalaris minor. The experiment in a line: Post-emergence herbicidal action against Phalaris minor.
The test system of a further experiment is Alopecurus myosuroides. The experiment in a line: Post-emergence herbicidal action against Alopecurus myosuroides.
The next experiment deals with Veronica hederifolia. Description: Post-emergence herbicidal action against Veronica hederifolia. To be noted: 28 DAT; 450 g a.i./ha.

Turning to `CS(=O)(=O)c1ccc(C(=O)C2C(=O)CCCC2=O)c([N+](=O)[O-])c1` [(B1.7) Mesotrione, mesotrione, reference compound], the “Herbicidal action 28 DAT [%] against Panicum maximum” value in the experiment on Panicum maximum stood at 0%. Also, the “Herbicidal action 43 DAT [%] against Bellis perenne” value in the experiment on Bellis perenne amounted to 0%. Besides, in the experiment with Ephilobium hirsutum, the “Herbicidal action 43 DAT [%] against Ephilobium hirsutum” value is on record as 0%. In addition, the “Herbicidal action 32 DAT [%] against Lamium purpureum” value in the experiment on Lamium purpureum (105 g of a.i./ha, post-emergence) came to 0%. The “Herbicidal action 43 DAT [%] against Ranunculus repens” value in the experiment with Ranunculus repens is reported as 0%. Further, in the experiment on Viola arvensis, the “Herbicidal action 43 DAT [%] against Viola arvensis” value amounted to 0%. Also, the pest or weed control at 5 g/ha in the experiment on Amaranthus palmeri (Amaranthus palmeri, post-emergence, 504 h, post-emergence, block with (B1.7) Mesotrione, read-out: Herbicidal action 21 DAT [%] against Amaranthus palmeri) amounted to 0%. Moreover, the “Herbicidal action 21 DAT [%] against Bidens pilosa” value is on record as 0% in the experiment on Bidens pilosa (5 g of a.i./ha, post-emergence, block with (B1.7) Mesotrione) and 25% in the experiment on Bidens pilosa (45 g of a.i./ha, post-emergence, block with (B1.7) Mesotrione).
Turning to `CS(=O)(=O)c1cc(C(F)(F)F)ccc1C(=O)c1cnoc1C1CC1` [(B4.18) Isoxaflutole], in the experiment with Amaranthus palmeri (Amaranthus palmeri, post-emergence, 504 h, read-out: Herbicidal action 21 DAT [%] against Amaranthus palmeri), the pest or weed control at 5 g/ha came to 10%. Moreover, the pest or weed control at 15 g/ha with Amaranthus palmeri (Amaranthus palmeri, post-emergence, 504 h, 15 g of a.i./ha, read-out: Herbicidal action 21 DAT [%] against Amaranthus palmeri) amounted to 10%. Moreover, the pest or weed control at 45 g/ha with Amaranthus palmeri (Amaranthus palmeri, post-emergence, 504 h, 45 g of a.i./ha, read-out: Herbicidal action 21 DAT [%] against Amaranthus palmeri) was 20%. Besides, the results for the “Herbicidal action 21 DAT [%] against Bidens pilosa” value in the experiment with Bidens pilosa (5 g of a.i./ha) and in the experiment on Bidens pilosa (45 g of a.i./ha) were 20% and 60%, respectively. The “Herbicidal action 21 DAT [%] against Brachiaria platyphylla” value is given as 20% in the experiment with Brachiaria platyphylla (15 g of a.i./ha) and 30% in the experiment on Brachiaria platyphylla (45 g of a.i./ha). In addition, in the experiment with Sorghum halepense (45 g of a.i./ha), the “Herbicidal action 21 DAT [%] against Sorghum halepense” value is 60%. In addition, the figures for the “Herbicidal action 21 DAT [%] against Digitaria sanguinalis” value in the experiment on Digitaria sanguinalis (15 g of a.i./ha) and in the experiment on Digitaria sanguinalis (45 g of a.i./ha) were 10% and 25%, respectively. In the experiment with Abutilon theophrasti, the “Herbicidal action 37 DAT [%] against Abutilon theophrasti” value amounted to 58%.
With `O=C(O)CNCP(=O)(O)O` [(B7.5) Glyphosate (CAS 39600-42-5)], the Herbicidal action with Amaranthus palmeri (16 DAT, 1440 g a.i./ha) worked out at 2%; with Ipomoea ssp. (720 g a.i./ha), 0%; in the experiment on Ipomoea ssp. (1440 g a.i./ha), 0%; with Lysimachia nummularia, 7%; in the experiment on Malva pusilia, 0%.
As for `O=C(O)CNCP(=O)(O)O` [(B7.5) Glyphosate], the Herbicidal action in the experiment with Lamium purpureum (14 DAT, 50 g a.i./ha) is listed as 50%; in the experiment with Lamium purpureum (28 DAT, 50 g a.i./ha) it was 30%; in the experiment with Lamium purpureum (28 DAT, 150 g a.i./ha), 40%; with Lamium purpureum (28 DAT, 450 g a.i./ha) it was 75%; in the experiment with Amaranthus palmeri (21 DAT, (res.), 50 g a.i./ha), 60%; in the experiment with Bidens pilosa (150 g a.i./ha), 75%. Besides, the Herbicidal action was found to be 85% in the experiment with Bidens pilosa (450 g a.i./ha); 30% in the experiment on Sorghum halepense (50 g a.i./ha); 70% in the experiment on Sorghum halepense (150 g a.i./ha); 85% in the experiment on Sorghum halepense (450 g a.i./ha); 80% in the experiment with Digitaria sanguinalis (21 DAT, 50 g a.i./ha); 20% in the experiment with Poa annua (14 DAT, 50 g a.i./ha). Also, the Herbicidal action in the experiment with Poa annua (28 DAT, 50 g a.i./ha) was 30%; in the experiment with Poa annua (28 DAT, 150 g a.i./ha), 50% and 60%; in the experiment with Poa annua (28 DAT, 450 g a.i./ha), 60%; in the experiment on Centaurea cyano (14 DAT, 50 g a.i./ha) it was 30%; in the experiment with Centaurea cyano (14 DAT, 150 g a.i./ha) it was 60%; with Centaurea cyano (28 DAT, 50 g a.i./ha) it was 30%. The Herbicidal action was 60% with Centaurea cyano (28 DAT, 150 g a.i./ha); 85% with Centaurea cyano (28 DAT, 450 g a.i./ha); 40% and 50% with Matricaria inodora (14 DAT, 50 g a.i./ha); 80% with Matricaria inodora (28 DAT, 450 g a.i./ha); 45% in the experiment with Echinochloa crus-galli; 35% in the experiment on Kochia scoparia (50 g a.i./ha). The Herbicidal action in the experiment with Kochia scoparia (150 g a.i./ha) worked out at 20%; in the experiment on Polygonum convolvulus it was 10%; in the experiment with Bromus sterilis (14 DAT, 50 g a.i./ha), 30%; in the experiment with Bromus sterilis (28 DAT, 150 g a.i./ha), 40%; with Lolium rigidum (14 DAT, 50 g a.i./ha) it was 40%; with Lolium rigidum (14 DAT, resistant biotype, 50 g a.i./ha), 20%. Moreover, the Herbicidal action in the experiment on Lolium rigidum (28 DAT, 50 g a.i./ha) stood at 30%; in the experiment on Lolium rigidum (28 DAT, 150 g a.i./ha) it was 60%; in the experiment with Phalaris minor (14 DAT, 50 g a.i./ha), 30%; with Phalaris minor (14 DAT, 450 g a.i./ha), 80%; in the experiment with Phalaris minor (28 DAT, 450 g a.i./ha), 30%; in the experiment with Alopecurus myosuroides (14 DAT, 50 g a.i./ha), 30%. The Herbicidal action in the experiment on Alopecurus myosuroides (28 DAT, 50 g a.i./ha) turned out to be 10%; with Alopecurus myosuroides (28 DAT, 150 g a.i./ha) it was 30%; in the experiment on Alopecurus myosuroides (28 DAT, 450 g a.i./ha), 60%; in the experiment on Veronica hederifolia, 90%.

For the origin of these results see US12171230B2, “Herbicidal compositions” (Bayer Aktiengesellschaft, priority 2018, dated 2024).
